{"source": "patent US10975116B2", "about": "“Methods of treating and preventing gastrointestinal motility disorders using aminosterols” (Enterin, Inc., priority 2013, dated 2021)", "key": {"gastrointestinal tract": {"test_system": "gastrointestinal tract", "test": "Aminosterol Induced GI Response after oral capsule in a human", "assay_type": "in vivo", "procedure": "Gelatin capsules were prepared for oral administration. Capsules were coated in shellac to prevent their release within the stomach. Furthermore, because squalamine and related aminosterols have antibiotic activity, enteric coating prevents the drug from altering the microbial populations of the stomach. […] Squalamine dilactate powder, 99% pure, or 1436 hydrochloride, 99% pure, was added manually into either Size 0 (for the 200 mg dose) or Size 1 (for the 100 mg dose) gelatin capsules. No excipient was added. The capsules were coated twice in 5% shellac (80% acetone/20% ethanol) and dried before use.\n200 mg of squalamine (lactate salt, excipient free) in a coated gelatin capsule was administered orally to a human in the morning on an empty stomach, with water. Squalamine was synthesized as described in Zasloff et al 2011. Within 2 hours nausea was experienced, lasting about 30 minutes. At 2.5 hours, increased peristalsis (“rumbling gut”) was experienced, lasting several minutes. At about 3 hours, a clear watery discharge of about 200 ml was passed rectally. A second episode occurred at 3.2 hours. Following this episode, bowel sounds quieted. No nausea or discomfort was subsequently experienced. Appetite was near normal. Despite normal feeding, feces were not passed for 2.5 days over which time no discomfort was experienced. The first feces passed after this quiescent period was soft and relatively small considering the intake of food and the time interval. Usual bowel functions resumed by about 4 days after squalamine administration.\n200 mg of 1436 (HCl salt, excipients free) in a gelatin capsule was administered orally to a human in the morning on an empty stomach, with water. […] At 2 hours, about 100 ml of clear watery diarrhea, recurring at 2.75 hours, 3 hours, 3.25 hours, and 4 hours, with progressively lesser volumes of liquid discharged. First bowel movement was passed at 3.5 days, of normal consistency. The subject experienced no abdominal discomfort, bloating, etc over this period. Usual bowel functions resumed by about 4.5 days after administration of Aminosterol 1436. […]\n100 mg of squalamine was orally administered in a capsule as in the first example. […] A period of “bowel quiet” was induced, however, that lasted 2 days, after which normally formed feces were passed."}, "[1]": {"test": "Recovery of squalamine from stool after oral dose (thin layer chromatography)", "assay_type": "in vivo, human", "conditions": "200 mg oral; all stool collected for 6 days; 60% acetonitrile/1% HCl extraction", "procedure": "200 mg of squalamine was administered to a human […] as in the first example. All stool was collected for 6 days following administration. Stool was then extracted with 60% acetonitrile and 1% HCl overnight. The supernatant was collected and the presence of squalamine assessed by thin layer chromatography following published procedures. Approximately 80% of the dose could be recovered from the stool."}, "[2]": {"test_system": "colon migrating motor complex (MMC)", "test": "Colonic motility and intraluminal pressure in excised colon segment", "parameters": "species or system mouse", "conditions": "squalamine added to the colonic lumen", "procedure": "A segment of colon was excised from a mouse, and one end was attached to a glass tube housing a pressure sensor. A video camera recorded the visible contractions of the segment. When squalamine was added to the colonic lumen, the frequency of contractions increased about 2 fold, representing coordinated peristaltic waves that move toward the rectum."}, "[3]": {"test_system": "N-terminally acetylated alpha-synuclein bound to DOPE/DOPS/DOPC vesicles", "test": "Displacement of alpha-synuclein from negatively charged vesicles (circular dichroism)", "assay_type": "binding", "procedure": "Alpha-synuclein was mixed with a preparation of vesicles consisting of DOPE (50%), DOPS (30%), DOPC (20%). The concentration of lipid was 2.4 mM; the concentration of N-terminally acetylated alpha-synuclein was 10 μM. The interaction was followed by circular dichoroism. The concentration of squalamine was increased in 40 μM increments. […] At a ratio of lipid to squalamine of 15:1, full displacement of alpha-synuclein was observed. Addition of squalamine to a solution of alpha-synuclein alone had no effect on the circular dichroism spectrum."}, "[4]": {"test_system": "mucinous adenocarcinoma (Stage 4b colon cancer)", "test": "Oral squalamine in Stage 4b colon cancer, single subject", "assay_type": "in vivo, human", "procedure": "A person presented with abdominal distention, pain, and progressive weight loss of several months duration.\nThe individual was begun on a total daily dose of 50 mg of squalamine, administered as 25 mg twice daily, as a powder dispersed in apple sauce. Approximately 6 months after initiation of squalamine treatment the individual was seen again at the hospital due to the chance recognition of a mass on their right kidney. The kidney was surgically removed, and during the procedure the peritoneum explored. […] The mass on the kidney was a benign cyst. Treatment with squalamine continued daily for 5 years. […] The subject died […] of a myocardial infarction."}, "lymphoma": {"test_system": "lymphoma", "test": "Oral squalamine in lymphoma, single subject", "assay_type": "in vivo, human", "procedure": "A person with a 2 year history of progressive dementia and weakness presented with a massive cervical, axillary, and inguinal lymphadenopathy, along with malaise, somnolence and pain. […] The skin of their feet was a nonblanching bright pink hue up to the ankle with a scattered brownish purpuric rash. The individual was provided end of life care.\nAt the end of December 2013, the individual was begun on a daily dose of one 50 mg capsule of squalamine. […] Rash cleared within 3 days. On day 4 after squalamine initiation, a short course of dexamethsone was begun to treat the hypercalcemia, and stimulate appetite. 20 mg (4 days), 16 mg (2 days), 8 mg, 4 mg (2 days), then 2 mg daily. […] Mid-January 2014 weakness on the right, involving arm and leg was noted; a diagnosis of a mild stroke was made. […] A flat left submandibular node was felt of normal size and consistency. […] Squalamine treatment continues."}, "[5]": {"conditions": "cited from earlier work; for oral bioavailability: animals (rodents; mice and dogs)"}, "[6]": {"conditions": "single 100 mg oral capsule, empty stomach"}, "[7]": {"conditions": "single 200 mg oral capsule, morning, empty stomach, one human"}}, "note": "“Also recorded” adds a separate entry of the source. Like-named read-outs stand apart in the source and are kept apart here.", "data": [{"substance": "squalamine", "values": [{"measurement": "gastrointestinal response", "setting": "gastrointestinal tract; 200 mg oral capsule in the evening following a large meal, overnight and following morning", "result": "No gastrointestinal response"}, {"measurement": "duration of the Aminosterol-Induced GI Response", "setting": "gastrointestinal tract; following a single 200 mg oral dose", "result": "about 4 days"}, {"measurement": "period of bowel quiet after the watery discharge (Phase III)", "setting": "gastrointestinal tract; following the larger squalamine dose (for example 200 mg)", "result": "2 to 3", "unit": "days"}, {"measurement": "duration of bowel quiet", "setting": "gastrointestinal tract; [6]", "result": 2, "unit": "days"}, {"measurement": "nausea and watery diarrhea", "setting": "gastrointestinal tract; [6]", "result": "Neither nausea, nor watery diarrhea was experienced"}, {"measurement": "duration of nausea", "setting": "gastrointestinal tract; [7]", "result": "about 30 minutes"}, {"measurement": "first clear watery rectal discharge / diarrhea, time after dosing", "setting": "gastrointestinal tract; [7]", "result": "about 3 hours"}, {"measurement": "further episodes of watery discharge, time after dosing", "setting": "gastrointestinal tract; [7]", "result": 3.2, "unit": "h"}, {"measurement": "increased peristalsis, time after dosing", "setting": "gastrointestinal tract; [7]", "result": 2.5, "unit": "h"}, {"measurement": "nausea, time of onset after dosing", "setting": "gastrointestinal tract; [7]", "result": "≤ 2", "unit": "h"}, {"measurement": "usual bowel functions resumed, time after administration", "setting": "gastrointestinal tract; [7]", "result": "about 4 days"}, {"measurement": "volume of first clear watery discharge", "setting": "gastrointestinal tract; [7]", "result": "about 200 ml"}, {"measurement": "time without feces / to first bowel movement after dosing", "setting": "gastrointestinal tract; single 200 mg oral capsule, morning, empty stomach, normal behavior about 1 passage every 24 hours", "result": 2.5, "unit": "days"}, {"measurement": "estimated reduction of small intestinal motility", "setting": "gastrointestinal tract; single 200 mg oral dose, versus normal about 1 passage every 24 hours", "result": 2.5, "unit": "fold"}, {"measurement": "dose recovered from the stool", "setting": "[1]", "result": "Approximately 80%"}, {"measurement": "increase of the frequency of contractions", "setting": "[2]", "result": "about 2 fold"}, {"measurement": "peak pressure of MMC waves", "setting": "[2]; versus before application", "result": "did not differ; also recorded: no apparent effect"}, {"measurement": "amount of alpha-synuclein membrane bound with increasing squalamine", "setting": "[3]; lipid 2.4 mM, alpha-synuclein 10 μM, squalamine in 40 μM increments", "result": "linear decrease"}, {"measurement": "effect on circular dichroism spectrum of alpha-synuclein alone", "setting": "[3]; no vesicles", "result": "no effect"}, {"measurement": "tumor at surgical exploration of the peritoneum", "setting": "[4]; 50 mg/day (25 mg twice daily, powder in apple sauce), approximately 6 months", "result": "No tumor was visible"}, {"measurement": "recurrence", "setting": "[4]; daily treatment for 5 years", "result": "no recurrence of cancer"}, {"measurement": "physical examination of nodes", "setting": "lymphoma; 50 mg daily from end of December 2013, end of February 2014", "result": "no palpable cervical nodes"}, {"measurement": "lymph node size", "setting": "lymphoma; 50 mg daily, by 1 week, dexamethsone from day 4", "result": "marked reduction in the size of the nodes"}, {"measurement": "clinical chemistry, polyclonal immunoglobulins", "setting": "lymphoma; 50 mg daily, repeat study", "result": "complete resolution of the polyclonal gammopathy"}, {"measurement": "rash cleared", "setting": "lymphoma; one 50 mg capsule daily", "result": "≤ 3", "unit": "days"}, {"measurement": "bowel function", "setting": "lymphoma; one 50 mg capsule daily, previously constipated", "result": "bowels began to move"}, {"measurement": "absorption from the gastrointestinal tract", "setting": "[5]; extensive studies in animals", "result": "neither squalamine nor Aminosterol 1436 can be absorbed to any extent"}, {"measurement": "oral bioavailability", "setting": "[5]", "result": "low bioavailability"}, {"measurement": "oral bioavailability", "setting": "[5]; listed as squalamine lactate", "result": "poorly bioavailable orally"}, {"measurement": "absorption by the subcutaneous and intraperitoneal routes", "setting": "[5]; rodents", "result": "well absorbed"}]}]}
